Consider 27 compounds from ChEMBL document CHEMBL1127046, “Antitumor agents. 3. Synthesis and biological activity of 4 beta-alkyl derivatives containing hydroxy, amino, and amido groups of 4'-O-demethyl-4-desoxypodophyllotoxin as antitumor agents” (J Med Chem, 1993).

For orientation: IC50 means the concentration that inhibits the measured activity by half.

The nature of assay [1]: Inhibition of DNA topoisomerase II from rat liver measured as 50% reduction in the amount of minicircle DNA relative to the control.
Another assay deals with P388. The assay can be described thus: Cytotoxicity against P388 leukemia. The format is functional, cell-based. The conditions noted are these: Mus musculus.
A further assay has as its target Tubulin (Bos taurus, UniProt Q6B856+Q862L2+Q862F3). The assay can be described thus: Drug concentration needed to produce a 50% reduction of bovine brain tubulin polymerization relative to the control.
In assay [2] the test system is L1210. Nature of the assay: The number of mice survived for 30 days at the dose of 10 (mg/kg/day). The format is functional, Mus musculus.
Assay [3] concerns L1210. Nature of the assay: Antitumor activity in vivo expressed as the percentage increase in life span at the dose of 10 (mg/kg/day). It counts as functional, Mus musculus.

For the compound `COc1cc([C@@H]2c3cc4c(cc3[C@@H](CCN(C)Cc3ccncc3)C3COC(=O)[C@@H]32)OCO4)cc(OC)c1O.Cl.Cl` (stereo partly drawn), the IC50 in assay [1] was 31.4 µM; in the assay with P388, 0.1 µM; at Tubulin, > 100 µM.

Consider `COc1cc([C@@H]2c3cc4c(cc3[C@@H](CCN(C)CCCN(C)C)C3COC(=O)[C@@H]32)OCO4)cc(OC)c1O.Cl.Cl` (stereo partly drawn), for which the figures for the IC50 (in assay [1]; in the assay on P388; against Tubulin) were 26.9 µM, 0.055 µM and > 100 µM, respectively.

Take `COc1cc([C@@H]2c3cc4c(cc3[C@@H](CCN(C)CCCCCCN(C)C)C3COC(=O)[C@@H]32)OCO4)cc(OC)c1O.Cl.Cl` (stereo partly drawn): the IC50 in assay [1] is 30 µM; with P388, 0.037 µM; against Tubulin, > 133 µM.

Turning to `COc1cc([C@@H]2c3cc4c(cc3[C@@H](CCN(C)Cc3ccccn3)C3COC(=O)[C@@H]32)OCO4)cc(OC)c1O.Cl.Cl` (stereo partly drawn), the concentration for half-maximal inhibition (IC50) in assay [1] was 31.4 µM; with P388, 0.14 µM; against Tubulin, > 100 µM.

As for `COc1cc([C@@H]2c3cc4c(cc3[C@@H](CCN(C)CCN3CCOCC3)C3COC(=O)[C@@H]32)OCO4)cc(OC)c1O.Cl.Cl` (stereo partly drawn), the IC50 in assay [1] is 116 µM; in the assay on P388, 0.26 µM; against Tubulin it was > 167 µM.

For the compound `COc1cc([C@@H]2c3cc4c(cc3[C@@H](CCNCCN(C)C)C3COC(=O)[C@@H]32)OCO4)cc(OC)c1O.Cl.Cl` (stereo partly drawn), the figures for the IC50 (in assay [1]; in the assay on P388; against Tubulin) were 13.3 µM, 0.04 µM and > 100 µM, respectively.

On to `COc1cc([C@@H]2c3cc4c(cc3[C@@H](CCN(C)N3CCN(C)CC3)C3COC(=O)[C@@H]32)OCO4)cc(OC)c1O.Cl.Cl` (stereo partly drawn), for which the IC50 was 32.3 µM in assay [1], 0.0043 µM in the assay on P388 and > 100 µM at Tubulin.

For `CCN(CC)CCN(C)CC[C@@H]1c2cc3c(cc2[C@@H](c2cc(OC)c(O)c(OC)c2)[C@H]2C(=O)OCC12)OCO3.Cl.Cl` (stereo partly drawn), the figures for the IC50 (in assay [1]; with P388; against Tubulin) were 53.8 µM, 0.037 µM and > 100 µM, respectively.

Compound `COc1cc([C@@H]2c3cc4c(cc3[C@@H](CC(=O)O)C3COC(=O)[C@@H]32)OCO4)cc(OC)c1O` (stereo partly drawn) gave an IC50 in the assay with P388 of 15 µM.

Take `COc1cc([C@@H]2c3cc4c(cc3[C@@H](CCCO)C3COC(=O)[C@@H]32)OCO4)cc(OC)c1O` (stereo partly drawn): the half-maximal inhibitory concentration (IC50) came out at 42.1 µM in assay [1], 0.05 µM in the assay with P388 and 26 µM against Tubulin.

Consider `COc1cc([C@@H]2c3cc4c(cc3[C@@H](CCO)C3COC(=O)[C@@H]32)OCO4)cc(OC)c1O` (stereo partly drawn), for which the IC50 in assay [1] was found to be 13.8 µM; in the assay on P388, 0.05 µM; on Tubulin it was 2 µM.

With `COc1cc([C@@H]2c3cc4c(cc3[C@@H](CC(=O)NCCc3cccn3C)C3COC(=O)[C@@H]32)OCO4)cc(OC)c1O.Cl` (stereo partly drawn), the IC50 in the assay on P388 was 1.5 µM; against Tubulin, > 100 µM.

For the compound `COc1cc([C@@H]2c3cc4c(cc3[C@@H](CCN(C)CCO)C3COC(=O)[C@@H]32)OCO4)cc(OC)c1O.Cl` (stereo partly drawn), the IC50 in assay [1] was 17.2 µM; in the assay with P388 it was 0.07 µM; at Tubulin it was > 100 µM.

Take `COc1cc([C@@H]2c3cc4c(cc3[C@@H](CCN(C)C3CCCCC3)C3COC(=O)[C@@H]32)OCO4)cc(OC)c1O.Cl` (stereo partly drawn): the IC50 was 60.9 µM in assay [1], 0.033 µM with P388 and > 167 µM on Tubulin.

With `COc1cc([C@@H]2c3cc4c(cc3[C@@H](CCN3CCOCC3)C3COC(=O)[C@@H]32)OCO4)cc(OC)c1O.Cl` (stereo partly drawn), the IC50 in assay [1] was 58.3 µM; with P388 it was 0.026 µM; at Tubulin, > 167 µM. In the assay on L1210 [2], the Survivors was 0. The compound further came in with an ILS max in the assay on L1210 [3] of 81%.

Turning to `COc1cc([C@@H]2c3cc4c(cc3[C@@H](CC(=O)NCCN3CCOCC3)C3COC(=O)[C@@H]32)OCO4)cc(OC)c1O.Cl` (stereo partly drawn), the figures for the IC50 in the assay with P388 and against Tubulin were 0.22 µM and > 100 µM, respectively.

Regarding `COc1cc([C@@H]2c3cc4c(cc3[C@@H](CCN3CCC[C@@H]3CO)C3COC(=O)[C@@H]32)OCO4)cc(OC)c1O.Cl` (stereo partly drawn), the results for the IC50 (in assay [1]; in the assay with P388; against Tubulin) were 112 µM, 0.063 µM and > 62 µM, respectively.

For `COc1cc([C@@H]2c3cc4c(cc3[C@@H](CCN(C)N(C)c3ccccc3)C3COC(=O)[C@@H]32)OCO4)cc(OC)c1O` (stereo partly drawn), the IC50 in the assay on P388 is > 1 µM.

For `COc1cc([C@@H]2c3cc4c(cc3[C@@H](CC(=O)N3CCC(N5CCCCC5)CC3)C3COC(=O)[C@@H]32)OCO4)cc(OC)c1O.Cl` (stereo partly drawn), the results for the IC50 (in assay [1]; in the assay on P388; against Tubulin) were 266 µM, 0.0084 µM and > 100 µM, respectively.

As to `COc1cc([C@@H]2c3cc4c(cc3[C@@H](CCN(C)Cc3ccccc3)C3COC(=O)[C@@H]32)OCO4)cc(OC)c1O.Cl` (stereo partly drawn), the IC50 in assay [1] is 97.3 µM; in the assay with P388 it was 0.15 µM; against Tubulin, > 167 µM. The same compound gave a Survivors with L1210 [2] of 0. Moreover, the ILS max in the assay with L1210 [3] came to 53%.

Take `COc1cc([C@@H]2c3cc4c(cc3[C@@H](CC(=O)N(C)CCN(C)C)C3COC(=O)[C@@H]32)OCO4)cc(OC)c1O.Cl` (stereo partly drawn): the results for the IC50 (in assay [1]; with P388; against Tubulin) were 252 µM, 0.032 µM and > 100 µM, respectively.

With `COc1cc([C@@H]2c3cc4c(cc3[C@@H](CC(=O)NCCN3CCCCC3)C3COC(=O)[C@@H]32)OCO4)cc(OC)c1O.Cl` (stereo partly drawn), the IC50 in assay [1] is 60.6 µM; with P388, 3 µM; against Tubulin, > 100 µM.

Turning to `COc1cc([C@@H]2c3cc4c(cc3[C@@H](CC(=O)NCc3ccncc3)C3COC(=O)[C@@H]32)OCO4)cc(OC)c1O.Cl` (stereo partly drawn), the IC50 with P388 was 2.2 µM; against Tubulin, > 100 µM.

Turning to `COc1cc([C@@H]2c3cc4c(cc3[C@@H](CCN3CCCCC3)C3COC(=O)[C@@H]32)OCO4)cc(OC)c1O.Cl` (stereo partly drawn), the IC50 was 67.7 µM in assay [1], 0.012 µM in the assay with P388 and > 167 µM against Tubulin.

With `COc1cc([C@@H]2c3cc4c(cc3[C@@H](CCN(C)C(CO)CO)C3COC(=O)[C@@H]32)OCO4)cc(OC)c1O.Cl` (stereo partly drawn), the results for the IC50 (in assay [1]; in the assay on P388; against Tubulin) were 25.1 µM, 0.66 µM and > 167 µM, respectively.

Consider `COCCN(C)CC[C@@H]1c2cc3c(cc2[C@@H](c2cc(OC)c(O)c(OC)c2)[C@H]2C(=O)OCC12)OCO3.Cl` (stereo partly drawn), for which the values for the IC50 (in assay [1]; with P388; against Tubulin) were 75.8 µM, 0.16 µM and > 100 µM, respectively.

As to `COc1cc([C@@H]2c3cc4c(cc3[C@@H](CCCN(C)C)C3COC(=O)[C@@H]32)OCO4)cc(OC)c1O.Cl` (stereo partly drawn), the IC50 in assay [1] is 73.5 µM; in the assay on P388, 0.012 µM; against Tubulin it was > 167 µM.
